According to patent US20070207980A1, “Chp-gemcitabine Combination Agents And Their Use As Anti-Tumor Agents” (priority 2003, published 2007):

What was measured:
ASPC1 = experiment: Cell line screening of CHP anti-proliferation activity (chemosensitivity MTT assay); assay type: cell-based; conditions: Pancreas cell lines
Description: (§1) Unless otherwise stated, cell lines from the American Type Culture Collection (ATCC, Rockville, Md.) were used and cultured to confluence in a monolayer in RPMI-1640 bicarbonate medium (Seromed, Berlin, Germany) in an incubator ([…], 37° C.). The cells were examined for mycoplasma contaminations. The medium included 10% heat-inactivated fetal calf serum (Seromed) and 4 mM glutamine. The cells were cultured and passaged according to standard procedures (0.03% trypsin with 0.02% EDTA, 3 times a week) . The cell number was determined using a TOA Sysmex micro-cell counter (TOA, Tokyo, Japan).

HCT-15 = experiment: as above; assay type: cell-based; conditions: Colon cell lines
Description: as §1

PANC1 = experiment: as above; assay type: cell-based; conditions: Pancreas cell lines
Description: as §1

SW620(Ccl227) = experiment: as above; assay type: cell-based; conditions: Colon cell lines
Description: as §1

HOS = experiment: as above; assay type: cell-based; conditions: Osteosarcoma tissue
Description: as §1

A518 = experiment: as above; assay type: cell-based; conditions: Melanoma
Description: as §1

T47D = experiment: as above; assay type: cell-based; conditions: Breast tissue
Description: as §1

CR02 = experiment: as above; assay type: cell-based; conditions: Carcinoids
Description: as §1

PC3 = experiment: as above; assay type: cell-based; conditions: Prostate tissue
Description: as §1

JVSO = experiment: as above; assay type: cell-based; conditions: Melanoma
Description: as §1

MCF-7 = experiment: as above; assay type: cell-based; conditions: Breast tissue
Description: as §1

Fib2 (PPH) = experiment: as above; assay type: cell-based; conditions: Fibroblasts
Description: as §1

B607 = experiment: as above; assay type: cell-based; conditions: Melanoma
Description: as §1

MIAPaCa2 = experiment: as above; assay type: cell-based; conditions: Pancreas cell lines
Description: as §1

K562 = experiment: as above; assay type: cell-based; conditions: Leukemia cells
Description: as §1

SW480 (Ccl228) = experiment: as above; assay type: cell-based; conditions: Colon cell lines
Description: as §1

Calc22 = experiment: as above; assay type: cell-based; conditions: Osteoblasts
Description: as §1

CR01 = experiment: as above; assay type: cell-based; conditions: Carcinoids
Description: as §1

BxPC3 [1] = experiment: as above; assay type: cell-based; conditions: Pancreas cell lines
Description: as §1

WI38 = experiment: as above; assay type: cell-based; conditions: Fibroblasts
Description: as §1

A498 = experiment: as above; assay type: cell-based; conditions: Renal cell lines
Description: as §1

DLD1 = experiment: as above; assay type: cell-based; conditions: Colon cell lines
Description: as §1

HT29 = experiment: as above; assay type: cell-based; conditions: Colon cell lines
Description: as §1

Me128 = experiment: as above; assay type: cell-based; conditions: Melanoma
Description: as §1

MDA-MBA231 = experiment: as above; assay type: cell-based; conditions: Breast tissue
Description: as §1

Fib3 (PPH) = experiment: as above; assay type: cell-based; conditions: Fibroblasts
Description: as §1

Capanl = experiment: as above; assay type: cell-based; conditions: Pancreas cell lines
Description: as §1

Colo320DM = experiment: as above; assay type: cell-based; conditions: Colon cell lines
Description: as §1

ACHN = experiment: as above; assay type: cell-based; conditions: Renal cell lines
Description: as §1

Colo205 = experiment: as above; assay type: cell-based; conditions: Colon cell lines
Description: as §1

PANC-1 cells = experiment: Effect of combined agents releasing gemcitabine first (Table 2); conditions: no gemcitabine first
Description: (§2) The chemosensitivity assay was performed in a 96-well microtiter plate with 10^4 cells per well and 100 μl of medium, and the components to be tested were supplied in a volume of 100 μl. All components were diluted on the microtiter plates, and the plates were incubated under cell culture conditions for 4 days, except for those tests wherein the ratio between application time and reaction was to be determined. The viability of the cells, including the mitochondrial activity, i.e., the ratio of cell survival rate and cell number, was determined using an MTT assay.
(§3) Combined agents of the invention sequentially releasing CHP and gemcitabine were also tested. […] Agents were used in cell cultures, which agents initially release CHP, followed by gemcitabine after 24 hours and 48 hours, respectively. […] Combined agents were used which released 1 μg/ml gemcitabine, followed by CHP after 12, 24 and 48 hours, respectively.

BxPC3 [2] = experiment: as above; conditions: no gemcitabine first
Description: as §2, §3

## O=C(O)[C@@H]1C[C@@H](O)CN1 (relative stereo) [CHP, cis-hydroxyproline]
ASPC1
  Reaction (CHP anti-proliferation activity): −42%
HCT-15
  Reaction (CHP anti-proliferation activity): −10%
PANC1
  Reaction (CHP anti-proliferation activity): −54%
SW620(Ccl227)
  Reaction (CHP anti-proliferation activity): −66.4%
HOS
  Reaction (CHP anti-proliferation activity): −68%
A518
  Reaction (CHP anti-proliferation activity): resistant
T47D
  Reaction (CHP anti-proliferation activity): −34%
CR02
  Reaction (CHP anti-proliferation activity): −13%
PC3
  Reaction (CHP anti-proliferation activity): resistant
JVSO
  Reaction (CHP anti-proliferation activity): −15%
MCF-7
  Reaction (CHP anti-proliferation activity): −43%
Fib2 (PPH)
  Reaction (CHP anti-proliferation activity): resistant
B607
  Reaction (CHP anti-proliferation activity): −12%
MIAPaCa2
  Reaction (CHP anti-proliferation activity): −45.7%
K562
  Reaction (CHP anti-proliferation activity): −11%
SW480 (Ccl228)
  Reaction (CHP anti-proliferation activity): −58%
Calc22
  Reaction (CHP anti-proliferation activity): +8%
CR01
  Reaction (CHP anti-proliferation activity): −35%
BxPC3 [1]
  Reaction (CHP anti-proliferation activity): −41%
WI38
  Reaction (CHP anti-proliferation activity): resistant
A498
  Reaction (CHP anti-proliferation activity): −6%
DLD1
  Reaction (CHP anti-proliferation activity): −19.8%
HT29
  Reaction (CHP anti-proliferation activity): −48%
Me128
  Reaction (CHP anti-proliferation activity): resistant
MDA-MBA231
  Reaction (CHP anti-proliferation activity): resistant
Fib3 (PPH)
  Reaction (CHP anti-proliferation activity): −14%
Capanl
  Reaction (CHP anti-proliferation activity): −66%
Colo320DM
  Reaction (CHP anti-proliferation activity): −11%
ACHN
  Reaction (CHP anti-proliferation activity): resistant
Colo205
  Reaction (CHP anti-proliferation activity): −66%
PANC-1 cells; CHP 3 μg/ml
  PANC-1 control: 98.8 ± 4.0
PANC-1 cells; CHP 6.1 μg/ml
  PANC-1 control: 96.0 ± 6.0
PANC-1 cells; CHP 12.5 μg/ml
  PANC-1 control: 90.8 ± 4.1
PANC-1 cells; CHP 25 μg/ml
  PANC-1 control: 95.9 ± 5.1
PANC-1 cells; CHP 50 μg/ml
  PANC-1 control: 94.8 ± 6.4
PANC-1 cells; CHP 100 μg/ml
  PANC-1 control: 95.1 ± 2.3
BxPC3 [2]; CHP 6.1 μg/ml
  BxPC3 control: 103.5 ± 2.6
BxPC3 [2]; CHP 12.5 μg/ml
  BxPC3 control: 102.6 ± 1.7
BxPC3 [2]; CHP 25 μg/ml
  BxPC3 control: 99.9 ± 3.1
BxPC3 [2]; CHP 50 μg/ml
  BxPC3 control: 99.8 ± 4.3
BxPC3 [2]; CHP 100 μg/ml
  BxPC3 control: 105.2 ± 5.4
